Test results taken from PubChem BioAssay (NCI).
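In this assay, cells in 96-well plates receive the compound at five concentrations for 48 hours. Endpoints are linearly interpolated between the surrounding concentrations. At the GI50, growth is halved. The concentration for full growth arrest is given as TGI.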

Legend:
Assay in all cases: NCI tumour cell line growth inhibition, 48 h
LOX IMVI melanoma = system: LOX IMVI melanoma
UACC-62 melanoma = system: UACC-62 melanoma
NCI-H23 lung = system: NCI-H23 lung
OVCAR-8 ovarian = system: OVCAR-8 ovarian
EKVX NSCLC = system: EKVX NSCLC
HCT-116 colon = system: HCT-116 colon
TK-10 renal = system: TK-10 renal

| Compound | TGI (LOX IMVI melanoma) | TGI (UACC-62 melanoma) | TGI (NCI-H23 lung) | TGI (OVCAR-8 ovarian) | TGI (EKVX NSCLC) | TGI (HCT-116 colon) | TGI (TK-10 renal) | GI50 (LOX IMVI melanoma) | GI50 (UACC-62 melanoma) | GI50 (NCI-H23 lung) | GI50 (OVCAR-8 ovarian) | GI50 (EKVX NSCLC) | GI50 (HCT-116 colon) | GI50 (TK-10 renal) |
| --- | --- | --- | --- | --- | --- | --- | --- | --- | --- | --- | --- | --- | --- | --- |
| C/C=C(/CCC1NCCC2c3ccccc3NC12)[Si](C)(C)C (stereo unspecified) | 20.2 µM | 26.4 µM | 28.8 µM | 21.1 µM | 27.4 µM | 11.9 µM | 28.8 µM | – | – | – | – | – | – | – |
| CN(C)CCC(CCN(C)C)=NOC(=O)c1ccccc1 | – | > 100 µM | > 100 µM | > 100 µM | > 100 µM | > 100 µM | > 100 µM | – | – | – | – | – | – | – |
| NC(=O)c1ncn(CCN2CCN(C(=O)NCCCCCCNC(=O)N3CCN(CCn4cnc(C(N)=O)c4N)CC3)CC2)c1N | > 100 µM | > 100 µM | > 100 µM | > 100 µM | > 100 µM | > 100 µM | > 100 µM | – | – | – | – | – | – | – |
| Cc1cc(Cl)ccc1NC(=O)CCCC(=O)C1CCC/C1=N\NC(=O)CC#N (stereo unspecified) | – | > 100 µM | > 100 µM | > 100 µM | > 100 µM | > 100 µM | > 100 µM | – | – | – | – | – | – | – |
| COc1cccc(NC(=O)C(C)(C)C)c1SSc1c(NC(=O)C(C)(C)C)cccc1OC | 30.4 µM | 45.4 µM | > 100 µM | 35.4 µM | > 100 µM | 42.8 µM | > 100 µM | – | – | – | – | – | – | – |
| O=C(CC1(O)C(=O)Nc2ccccc21)c1ccc(F)cc1 (stereo unspecified) | > 100 µM | > 100 µM | > 100 µM | > 100 µM | > 100 µM | > 100 µM | > 100 µM | – | – | – | – | – | – | – |
| COC(=O)C1=Cc2cc(OC)c(OC)cc2[C@H](c2ccc(OC)c(OC)c2)C1C(=O)OC (stereo partly specified) | > 100 µM | > 100 µM | > 100 µM | > 100 µM | > 100 µM | > 100 µM | > 100 µM | – | – | – | – | – | – | – |
| Cn1c(=O)c2ccc(-c3ccc(Br)cc3)nc2n(C)c1=O | > 100 µM | > 100 µM | > 100 µM | > 100 µM | > 100 µM | > 100 µM | > 100 µM | – | – | – | – | – | – | – |
| COC(=O)C[CH2][Ge]([CH3])([CH3])[S]c1ccccc1 | 26.2 µM | 60.9 µM | > 100 µM | 83.8 µM | 86.4 µM | > 100 µM | > 100 µM | 12.5 µM | 21.9 µM | 43.3 µM | 25.2 µM | 28.2 µM | 33.4 µM | 55.7 µM |
| O=C(/C=C/c1ccccc1Cl)c1cccc2ccccc12 | 24.3 µM | 28.6 µM | 28.1 µM | 4.19 µM | 25.4 µM | 12.8 µM | 29.2 µM | – | – | – | – | – | – | – |
| CC(=O)[CH-]C(=O)c1ccccc1.CC(=O)[CH-]C(=O)c1ccccc1.CC[C@H](/C=C/C(C)[C@H]1CCC2[C@@H]3CC=C4C[C@@H]([O-])CC[C@]4(C)C3CC[C@@]21C)C(C)C.CC[O-].[Ti+4] (stereo partly specified) | > 100 µM | > 100 µM | > 100 µM | > 100 µM | > 100 µM | > 100 µM | > 100 µM | > 100 µM | > 100 µM | > 100 µM | > 100 µM | > 100 µM | > 100 µM | > 100 µM |
| Cc1ccc(NC(=O)CC/C(CC(=O)C(C)(C)C)=N/NC(=O)C[N+](C)(C)C)cc1C | > 100 µM | > 100 µM | > 100 µM | > 100 µM | > 100 µM | > 100 µM | > 100 µM | – | – | – | – | – | – | – |
| Cc1cc(=O)n2c3c(c4c(cc13)c(CO)cc(=O)n4C)OC2 | 21.1 µM | 25.9 µM | 48.1 µM | 39.1 µM | > 100 µM | 15.8 µM | 62.4 µM | – | – | – | – | – | – | – |
| CC1(c2cccc(N)c2)C2C(=O)NC(=O)C1C(=O)NC2=O (stereo unspecified) | 81.1 µM | > 100 µM | 48.5 µM | > 100 µM | > 100 µM | – | > 100 µM | – | – | – | – | – | – | – |
| CSc1nc2c(nc(N)n2C2OC(COC(C)=O)C(OC(C)=O)C(OC(C)=O)C2OC(C)=O)c(=O)n1C (stereo unspecified) | > 100 µM | > 100 µM | > 100 µM | > 100 µM | > 100 µM | > 100 µM | > 100 µM | – | – | – | – | – | – | – |
| CC(=O)[CH-]C(=O)c1ccccc1.CC(=O)[CH-]C(=O)c1ccccc1.CC1(C)OCC(C2OC3OC(C)(C)OC3C2[O-])O1.CC1(C)OCC(C2OC3OC(C)(C)OC3C2[O-])O1.[Ti+4] (stereo unspecified) | 34.2 µM | 39.6 µM | 38.3 µM | 34.3 µM | 30.1 µM | 32.1 µM | > 100 µM | 13.7 µM | 16.9 µM | 18.2 µM | 13.9 µM | 14.1 µM | 14.4 µM | 34.1 µM |
| CSc1ccc(OCC2OC2O)cc1 (stereo unspecified) | > 31.6 µM | > 100 µM | > 100 µM | > 100 µM | > 100 µM | 36.9 µM | > 100 µM | – | – | – | – | – | – | – |
| C1COCCOCCOCCOCCOCCO1.[Cl][Sn]([Cl])([c]1ccccc1)[c]1ccccc1 | 4.77 µM | 4.12 µM | 8.84 µM | 16.4 µM | 19 µM | 17.3 µM | 7.01 µM | 2.36 µM | 1.86 µM | 2.97 µM | 4.97 µM | 6.77 µM | 5.53 µM | 2.78 µM |
